The target of the assay is T1, human OX2R (Homo sapiens, UniProt O43614).
T1 sequence (O43614 1-444): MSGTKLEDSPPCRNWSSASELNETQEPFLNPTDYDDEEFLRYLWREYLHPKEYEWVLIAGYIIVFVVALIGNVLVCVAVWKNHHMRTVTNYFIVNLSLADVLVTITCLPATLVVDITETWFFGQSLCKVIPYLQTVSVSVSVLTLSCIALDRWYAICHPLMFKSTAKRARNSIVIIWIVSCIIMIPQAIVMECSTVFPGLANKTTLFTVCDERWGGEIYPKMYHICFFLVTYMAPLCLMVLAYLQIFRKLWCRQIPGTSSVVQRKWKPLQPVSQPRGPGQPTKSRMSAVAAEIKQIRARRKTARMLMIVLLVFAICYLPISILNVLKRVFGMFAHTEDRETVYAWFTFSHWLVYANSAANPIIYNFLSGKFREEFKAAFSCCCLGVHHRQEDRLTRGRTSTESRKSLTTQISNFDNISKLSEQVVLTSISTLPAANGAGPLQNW
Kind of assay: IPOne (IP-1) orexin receptor agonist assay in CHO cells expressing human OX2R. Particulars: CHO, hOX2R IP-One; percentage of mean max effect of a reference compound at 1 uM with 100% activity.
In turn, `C[C@@H]1C[C@H](NS(C)(=O)=O)C2COC3CCC(CC3)c3cc(ccc3OC(F)(F)F)OCCCOC(=O)N21` (some centres unmarked) [Example 50, N-((2^1S,2^4S, 5^2R,5^3S,5^5R)-5^5-methyl-6-oxo-1^6-(trifluoro-methoxy)-3,7,11-trioxa-5(2,1)-pyrrolidina-1(1,3)-benzena-2(1,4)-cyclohexana-cyclounde-caphane-5^3-yl)methane-sulfonamide] displayed a maximum response (Emax) of 101%.

Compound `C[C@@H]1C[C@H](NS(C)(=O)=O)[C@@H]2CO[C@H]3CC[C@H](CC3)c3cc(C(F)(F)F)cc(n3)OCCCOC(=O)N12` [Example 51, N-((2^1S,2^4S,5^2R,5^3S,5^5R)-5^5-methyl-6-oxo-14-(trifluoromethyl)-3,7,11-trioxa-1(2,6)-pyridina-5(2,1)-pyrrolidina-2(1,4)-cyclohexanacycloundecaphane-5^3-yl)methanesulfonamide] came in with an Emax of 99.2%.

As for `C[C@@H]1C[C@H](NS(C)(=O)=O)C2COC3CCC(CC3)c3ccc(C(F)(F)F)c(c3)OCCCOC(=O)N21` (some centres unmarked) [Example 52, N-((2^1S,2^4S,5^2R,5^3S,5^5R)-5^5-methyl-6-oxo-1^4-(trifluoromethyl)-3,7,11-trioxa-5(2,1)-pyrrolidina-1(1,3)-benzena-2(1,4)-cyclohexanacycloundecaphane-5^3-yl)methanesulfonamide], the Emax was determined as 98.4%.

Compound `C[C@@H]1C[C@H](NS(C)(=O)=O)C2COC3CCC(CC3)c3cc(ccc3OC(F)(F)F)OCCOC(=O)N21` (some centres unmarked) [Example 53, N-((2^1S,2^4S,5^2R,5^3S,5^5R)-5^5-methyl-6-oxo-16-(trifluoromethoxy)-3,7,10-trioxa-5(2,1)-pyrrolidina-1(1,3)-benzena-2(1,4)-cyclohexanacyclodecaphane-5^3-yl)methanesulfonamide] registered an Emax of 103%.

`C[C@@H]1C[C@H](NS(C)(=O)=O)C2COC3CCC(CC3)c3cc(C(F)(F)F)cc(n3)OCCOC(=O)N21` (some centres unmarked) [Example 54, N-((2^1S,2^4S,5^2R,5^3S,5^5R)-5^5-methyl-6-oxo-1^4-(trifluoromethyl)-3,7,10-trioxa-1(2,6)-pyridina-5(2,1)-pyrrolidina-2(1,4)-cyclohexanacyclodecaphane-5^3-yl)methanesulfonamide] had an Emax of 100%.

As to `C[C@@H]1C[C@H](NS(C)(=O)=O)C2COC3CCC(CC3)c3cnc(F)c(c3)OCCCOC(=O)N21` (some centres unmarked) [Example 55, N-((2^1S,2^4S,5^2R,5^3S,5^5R)-1^6-fluoro-5^5-methyl-6-oxo-3,7,11-trioxa-1(3,5)-pyridina-5(2,1)-pyrrolidina-2(1,4)-cyclohexanacycloundecaphane-5^3-yl)methanesulfonamide], the Emax worked out at 103%.

The compound `C[C@@H]1C[C@H](NS(C)(=O)=O)C2COC3CCC(CC3)c3ccc(F)c(n3)OCCOC(=O)N21` (some centres unmarked) [Example 56, N-((2^1S,2^4S,5^2R,5^3S,5^5R)-1^5-fluoro-5^5-methyl-6-oxo-3,7,10-trioxa-1(2,6)-pyridina-5(2,1)-pyrrolidina-2(1,4)-cyclohexanacyclodecaphane-5^3-yl)methanesulfonamide] returned an Emax of 98.2%.

In turn, `C[C@@H]1C[C@H](NS(C)(=O)=O)C2COC3CCC(CC3)c3ccc(F)c(n3)OCCCOC(=O)N21` (some centres unmarked) [Example 57, N-((2^1S,2^4S,5^2R,5^3S,5^5R)-1^5-fluoro-5^5-methyl-6-oxo-3,7,11-trioxa-1(2,6)-pyridina-5(2,1)-pyrrolidina-2(1,4)-cyclohexanacycloundecaphane-5^3-yl)methanesulfonamide] yielded a maximal response (Emax) of 102%.

In the case of `C[C@@H]1C[C@H](NS(C)(=O)=O)C2COC3CCC(CC3)c3nc(ccc3OC(F)(F)F)OCCOC(=O)N21` (some centres unmarked) [Example 58, N-((2^1S,2^4S,5^2R,5^3S,5^5R)-5^5-methyl-6-oxo-1^3-(trifluoromethoxy)-3,7,10-trioxa-1(2,6)-pyridina-5(2,1)-pyrrolidina-2(1,4)-cyclohexanacyclodecaphane-5^3-yl)methanesulfonamide], the Emax was 102%.

`C[C@@H]1C[C@H](NS(C)(=O)=O)C2COC3CCC(CC3)c3nc(ccc3OC(F)(F)F)OCCCOC(=O)N21` (some centres unmarked) [Example 59, N-((2^1S,2^4S,5^2R,5^3S,5^5R)-5^5-methyl-6-oxo-1^3-(trifluoromethoxy)-3,7,11-trioxa-1(2,6)-pyridina-5(2,1)-pyrrolidina-2(1,4)-cyclohexanacycloundecaphane-5^3-yl)methanesulfonamide] came in with a maximum response (Emax) of 96.9%.

With `CC(C)Oc1ccc2cc1C1CCC(CC1)OCC1[C@@H](NS(C)(=O)=O)C[C@@H](C)N1C(=O)OCCO2` (some centres unmarked) [Example 62, N-((2^1S,2^4S,5^2R,5^3S,5^5R)-1^6-isopropoxy-5^5-methyl-6-oxo-3,7,10-trioxa-5(2,1)-pyrrolidina-1(1,3)-benzena-2(1,4)-cyclohexanacyclodecaphane-5^3-yl)methanesulfonamide], the maximum response (Emax) stood at 91.2%.

Compound `CC(C)Oc1ccc2cc1C1CCC(CC1)OCC1[C@@H](NS(C)(=O)=O)C[C@@H](C)N1C(=O)OCCCO2` (some centres unmarked) [Example 63, N-((2^1S,2^4S,5^2R,5^3S,5^5R)-1^6-isopropoxy-5^5-methyl-6-oxo-3,7,11-trioxa-5(2,1)-pyrrolidina-1(1,3)-benzena-2(1,4)-cyclohexanacycloundecaphane-5^3-yl)methanesulfonamide] returned a maximum response (Emax) of 93.1%.

For the compound `C[C@@H]1C[C@H](NS(C)(=O)=O)C2COC3CCC(CC3)c3ccc(C(F)(F)F)c(n3)OCCOC(=O)N21` (some centres unmarked) [Example 64, N-((2^1S,2^4S,5^2R,5^3S,5^5R)-5^5-methyl-6-oxo-1^5-(trifluoromethyl)-3,7,10-trioxa-1(2,6)-pyridina-5(2,1)-pyrrolidina-2(1,4)-cyclohexanacyclodecaphane-5^3-yl)methanesulfonamide], the maximal effect (Emax) was 102%.

For the compound `C[C@@H]1C[C@H](NS(C)(=O)=O)C2COC3CCC(CC3)c3ccc(C(F)(F)F)c(n3)OCCCOC(=O)N21` (some centres unmarked) [Example 65, N-((2^1S,2^4S,5^2R,5^3S,5^5R)-5^5-methyl-6-oxo-1^5-(trifluoromethyl)-3,7,11-trioxa-1(2,6)-pyridina-5(2,1)-pyrrolidina-2(1,4)-cyclohexanacycloundecaphane-5^3-yl)methanesulfonamide], the Emax came out at 103%.

As to `Cc1cc2nc(c1)C1CCC(CC1)OCC1[C@@H](NS(C)(=O)=O)C[C@@H](C)N1C(=O)OCCO2` (some centres unmarked) [Example 66, N-((2^1S,2^4S,5^2R,5^3S,5^5R)-1^4,5^5-dimethyl-6-oxo-3,7,10-trioxa-1(2,6)-pyridina-5(2,1)-pyrrolidina-2(1,4)-cyclohexanacyclodecaphane-5^3-yl)methanesulfonamide], the Emax amounted to 95%.

`Cc1cc2nc(c1)C1CCC(CC1)OCC1[C@@H](NS(C)(=O)=O)C[C@@H](C)N1C(=O)OCCCO2` (some centres unmarked) [Example 67, N-((2^1S,2^4S,5^2R,5^3S,5^5R)-1^4,5^5-dimethyl-6-oxo-3,7,11-trioxa-1(2,6)-pyridina-5(2,1)-pyrrolidina-2(1,4)-cyclohexanacycloundecaphane-5^3-yl)methanesulfonamide] showed a maximal response (Emax) of 98.5%.

As to `C[C@@H]1C[C@H](NS(C)(=O)=O)C2COC3CCC(CC3)c3nc(ccc3C(F)(F)F)OCCOC(=O)N21` (some centres unmarked) [Example 68, N-((2^1S,2^4S,5^2R,5^3S,5^5R)-5^5-methyl-6-oxo-1^3-(trifluoromethyl)-3,7,10-trioxa-1(2,6)-pyridina-5(2,1)-pyrrolidina-2(1,4)-cyclohexanacyclodecaphane-5^3-yl)methanesulfonamide], the Emax is 102%.

For orientation: Emax means the maximal effect, on the per cent scale that the assay sets.

The record behind these values is US20240002397A1, “3-AMINO PYRROLIDINE AND PIPERIDINE MACROCYCLIC OREXIN RECEPTOR AGONISTS” (Merck Sharp & Dohme LLC, priority 2020, published 2024).
